Source: patent US6825230B2, “Spiro and dispiro 1,2,4-trixolane antimalarials” (Medicines for Malaria Venture MMV, priority 2002, dated 2004)
≈ marks a conversion by molar mass, not a printed value.

Tests used:
P. berghei ANKA strain = assay: Divided 3x3 mg/kg and 3x1 mg/kg po doses in infected mice; assay type: in vivo, Plasmodium berghei; details: for Activity (%): percent reduction of parasitemia vs control on day 4
Protocol: Moro NMRI male mice (Fu Albino specific pathogen free) weighing 18±2 g were infected intravenously (i.v.) with 2×10^7 P. berghei ANKA strain-infected erythrocytes from donor mice on day 0 of the experiment. From donor mice with circa 30% parasitemia, heparinized blood was taken and diluted in physiological saline to 10^8 parasitized erythrocytes per ml. An aliquot (0.2 ml) of this suspension was injected i.v. into experimental and control groups of mice. […] Throughout the experiments, mice were kept in groups of three or five animals in Makrolon type II cages in an air-conditioned animal room at 22 to 23° C.
They were administered per os (p.o.) in a total volume of 0.01 ml per gram of mouse. The activity of the compound was determined by a variety of methods outlined in subsequent sections. Survival time was also recorded, and survival to day 30 post-infection was considered to be a cure.
The second experiment consists of administration of divided 3×3 mg/kg and 3×1 mg/kg po doses administered on days 1, 2, and 3 post-infection. On day 4 post-infection, blood smears of all animals were prepared and stained with Giemsa. […] Compounds were administered orally in the SSV vehicle.

[1] = tested on: chloroquine-resistant K1 strain of P. falciparum; assay: In vitro antimalarial semiautomated microdilution assay ([3H]-hypoxanthine incorporation), K1 strain; assay type: cell-based, Plasmodium falciparum; details: for IC50: Plasmodium falciparum, K1, 72 h, read-out: IC50 (ng/ml) K1, chloroquine-resistant K1 strain, 72 h incubation
Procedure, shortened: (§1)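 IC50 values come from Logit regression of [3H]-hypoxanthine uptake data. Parasites were intraerythrocytic P. falciparum forms taken from asynchronous stock cultures and tested by semiautomated microdilution.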

[2] = tested on: chloroquine-sensitive NF54 strain of P. falciparum; assay: In vitro antimalarial semiautomated microdilution assay ([3H]-hypoxanthine incorporation), NF54 strain; assay type: cell-based, Plasmodium falciparum; details: for IC50: Plasmodium falciparum, NF54, 72 h, read-out: IC50 (ng/ml) NF54, chloroquine-sensitive NF54 strain, 72 h incubation
Procedure, shortened: as §1

[3] = tested on: ANKA strain of P. berghei; assay: Single dose STI in vivo screen in infected mice; design: species or system Plasmodium berghei; details: for Survival (days) 10 mg/kg po: single 10 mg/kg po in 3% ethanol and 7% Tween 80; for Survival (days) 10 mg/kg po / Survival (days) 10 mg/kg SSV po / Survival (days) 10 mg/kg sc: untreated 6-7 days; for Activity (%) 10 mg/kg po: single 10 mg/kg po in 3% ethanol and 7% Tween 80 on day 1 post-infection; for Activity (%) 10 mg/kg po / Activity (%) 10 mg/kg SSV po / Activity (%) 10 mg/kg sc: percent reduction in parasitemia on day 3; for Survival (days) 10 mg/kg SSV po: single 10 mg/kg po in SSV; for Activity (%) 10 mg/kg SSV po: single 10 mg/kg po in standard suspending vehicle (SSV) on day 1 post-infection; for Survival (days) 10 mg/kg sc: single 10 mg/kg sc in 3% ethanol and 7% Tween 80; for Activity (%) 10 mg/kg sc: single 10 mg/kg sc in 3% ethanol and 7% Tween 80 on day 1 post-infection
[4] = tested on: Schistosoma mansoni adult worms (49-day-old); assay: Effect on adult schistosomes (49-day-old) in infected mice; assay type: in vivo; details: single 400 mg/kg per os; for Adult worms day 49, per os 400 mg/kg, DEAD WORM (%): percentage of dead worm in the liver; for % reduction of adult worms growth at day 49 after per os application of 400 mg/kg, TWR (%): 49-day-old adults, total worm reduction rate
Protocol: Mice were infected with 100 Schistosoma mansoni cercariae on day 49 post-treatment. Each group was treated per os with OZ compounds at single doses of 200, 400, and 600 mg/kg. Untreated mice served as the control. All groups were killed 4 weeks after treatment and the liver and intestine were removed and separated. The liver and intestine were compressed and alive male and female worms could be seen and counted.

[5] = 3 × 1 mg/kg p.o. SSV on days 1, 2, 3 post-infection
[6] = 3 × 3 mg/kg p.o. SSV on days 1, 2, 3 post-infection

O=C1CN(C(=O)CC2CCC3(CC2)OOC2(O3)C3CC4CC(C3)CC2C4)CCN1 (centres unmarked) [compound 296]
Survival (P. berghei ANKA strain; [5]): 7.8 days
Activity (%) (P. berghei ANKA strain; [5]): 49%
Survival (P. berghei ANKA strain; [6]): 9.4 days
Activity (%) (P. berghei ANKA strain; [6]): 94%

Oc1ccc(C2CCC3(CC2)OOC2(O3)C3CC4CC(C3)CC2C4)cc1 (centres unmarked) [compound 288]
Survival (P. berghei ANKA strain; [5]): 8.4 days
Activity (%) (P. berghei ANKA strain; [5]): 49%
Survival (P. berghei ANKA strain; [6]): 10.2 days
Activity (%) (P. berghei ANKA strain; [6]): 99%

CS(=O)(=O)O.NC(=O)CCNCC1CCC2(CC1)OOC1(O2)C2CC3CC(C2)CC1C3 (centres unmarked) [compound 319]
Survival (P. berghei ANKA strain; [5]): 13 days
Activity (%) (P. berghei ANKA strain; [5]): 92%
Survival (P. berghei ANKA strain; [6]): 11.2 days
Activity (%) (P. berghei ANKA strain; [6]): 99.97%

NC1(C(=O)NCC2CCC3(CC2)OOC2(O3)C3CC4CC(C3)CC2C4)CCCC1 (centres unmarked) [compound 317]
Survival (P. berghei ANKA strain; [5]): 11.4 days
Activity (%) (P. berghei ANKA strain; [5]): 73%
Survival (P. berghei ANKA strain; [6]): 16.8 days
Activity (%) (P. berghei ANKA strain; [6]): 100%

CCOC(=O)CNCC1CCC2(CC1)OOC1(O2)C2CC3CC(C2)CC1C3.CS(=O)(=O)O (centres unmarked) [compound 290]
Survival (P. berghei ANKA strain; [5]): 6.8 days
Activity (%) (P. berghei ANKA strain; [5]): 14%
Survival (P. berghei ANKA strain; [6]): 10.6 days
Activity (%) (P. berghei ANKA strain; [6]): 93%

O=C(CC1CCC2(CC1)OOC1(O2)C2CC3CC(C2)CC1C3)N1CCC(O)CC1 (centres unmarked) [compound 297]
Survival (P. berghei ANKA strain; [5]): 6.4 days
Activity (%) (P. berghei ANKA strain; [5]): 22%
Survival (P. berghei ANKA strain; [6]): 9.4 days
Activity (%) (P. berghei ANKA strain; [6]): 89%

NC(=O)CNC(=O)CC1CCC2(CC1)OOC1(O2)C2CC3CC(C2)CC1C3 (centres unmarked) [compound 306]
Survival (P. berghei ANKA strain; [5]): 11 days
Activity (%) (P. berghei ANKA strain; [5]): 85%
Survival (P. berghei ANKA strain; [6]): 7.6 days
Activity (%) (P. berghei ANKA strain; [6]): 99.75%

NC(=O)c1cn(CC2CCC3(CC2)OOC2(O3)C3CC4CC(C3)CC2C4)cn1 (centres unmarked) [compound 320]
Survival (P. berghei ANKA strain; [5]): 8.6 days
Activity (%) (P. berghei ANKA strain; [5]): 50%
Survival (P. berghei ANKA strain; [6]): 9.6 days
Activity (%) (P. berghei ANKA strain; [6]): 96%

OC12CC3CC(C1)C1(OOC4(CCC5(CC4)OCCO5)O1)C(C3)C2 (centres unmarked) [OZ153, 5-Hydroxyadamantane-2-spiro-3′-1′,2′,4′,9′,12′-pentaoxadispiro[4.2.4.2]tetradecane]
IC50 (ng/ml) K1 ([1]; chloroquine-resistant K1 strain, 72 h incubation): 7.7 ng/mL (≈ 0.0228 µM)
IC50 (ng/ml) NF54 ([2]; chloroquine-sensitive NF54 strain, 72 h incubation): 19 ng/mL (≈ 0.0561 µM)
Survival (days) 10 mg/kg po [3]: 6.3 days
Activity (%) 10 mg/kg po ([3]; 10 mg/kg): 15%
Survival (days) 10 mg/kg SSV po ([3]; 10 mg/kg): 7.0 days
Activity (%) 10 mg/kg SSV po ([3]; 10 mg/kg): 23%
Survival (days) 10 mg/kg sc ([3]; 10 mg/kg): 6.3 days
Activity (%) 10 mg/kg sc ([3]; 10 mg/kg): 20%
Adult worms day 49, per os 400 mg/kg, DEAD WORM (%) [4]: no dead

O=C([C@H]1CC[C@]2(CC1)OOC1(O2)C2CC3CC(C2)CC1C3)N1CCN(c2ccccc2)CC1 (some centres unmarked) [OZ140]
IC50 [1]: 5.9 ng/mL (≈ 0.013 µM)
IC50 [2]: 8.2 ng/mL (≈ 0.0181 µM)
Survival (days) 10 mg/kg po [3]: 6.0 days
Activity (%) 10 mg/kg po [3]: 0%
Survival (days) 10 mg/kg SSV po [3]: 6.3 days
Activity (%) 10 mg/kg SSV po [3]: 8%
Survival (days) 10 mg/kg sc [3]: 7.0 days
Activity (%) 10 mg/kg sc [3]: 60%
% reduction of adult worms growth at day 49 after per os application of 400 mg/kg, TWR (%) [4]: 0%
Adult worms day 49, per os 400 mg/kg, DEAD WORM (%) [4]: 3%

Cc1ccc(S(=O)(=O)O)cc1.NCCNC(=O)CC1CCC2(CC1)OOC1(O2)C2CC3CC(C2)CC1C3 (centres unmarked) [compound 305]
Survival (P. berghei ANKA strain; [5]): 9.6 days
Activity (%) (P. berghei ANKA strain; [5]): 87%
Survival (P. berghei ANKA strain; [6]): 12.2 days
Activity (%) (P. berghei ANKA strain; [6]): 99.91%

C1=C(c2ccccc2)CCC2(C1)OOC1(O2)C2CC3CC(C2)CC1C3 (centres unmarked) [OZ226, Adamantane-2-spiro-3′-8′-phenyl-1′,2′,4′-trioxaspiro[4.5]dec-7′-ene]
IC50 [1]: 4 ng/mL (≈ 0.0118 µM)
IC50 [2]: 4 ng/mL (≈ 0.0118 µM)
Survival (days) 10 mg/kg po [3]: 5.0 days
Activity (%) 10 mg/kg po [3]: 0%
Survival (days) 10 mg/kg SSV po [3]: 5.3 days
Activity (%) 10 mg/kg SSV po [3]: 0%
Survival (days) 10 mg/kg sc [3]: 11.0 days
Activity (%) 10 mg/kg sc [3]: 99.92%
% reduction of adult worms growth at day 49 after per os application of 400 mg/kg, TWR (%) [4]: 52%
Adult worms day 49, per os 400 mg/kg, DEAD WORM (%) [4]: 0%

CS(=O)(=O)O.NCCOc1ccc(C2CCC3(CC2)OOC2(O3)C3CC4CC(C3)CC2C4)cc1 (centres unmarked) [compound 323]
Survival (P. berghei ANKA strain; [5]): 14.4 days
Activity (%) (P. berghei ANKA strain; [5]): 66%
Survival (P. berghei ANKA strain; [6]): 14.4 days
Activity (%) (P. berghei ANKA strain; [6]): 99.95%

O=c1ccn(CC2CCC3(CC2)OOC2(O3)C3CC4CC(C3)CC2C4)cc1 (centres unmarked) [compound 302]
Survival (P. berghei ANKA strain; [5]): 13.4 days
Activity (%) (P. berghei ANKA strain; [5]): 87%
Survival (P. berghei ANKA strain; [6]): 13.4 days
Activity (%) (P. berghei ANKA strain; [6]): 99.51%

CS(=O)(=O)O.O=C(O)CNCC1CCC2(CC1)OOC1(O2)C2CC3CC(C2)CC1C3 (centres unmarked) [compound 309]
Survival (P. berghei ANKA strain; [5]): 9.4 days
Activity (%) (P. berghei ANKA strain; [5]): 66%
Survival (P. berghei ANKA strain; [6]): 9.2 days
Activity (%) (P. berghei ANKA strain; [6]): 99%

NC(=O)OC1CCC2(CC1)OOC1(O2)C2CC3CC(C2)CC1C3 (centres unmarked) [OZ107]
IC50 [1]: 1 ng/mL (≈ 0.00309 µM)
IC50 [2]: 0.3 ng/mL (≈ 0.000928 µM)
Survival (days) 10 mg/kg po [3]: 6.3 days
Activity (%) 10 mg/kg po [3]: 70%
Survival (days) 10 mg/kg SSV po [3]: 6.3 days
Activity (%) 10 mg/kg SSV po [3]: 32%
Survival (days) 10 mg/kg sc [3]: 8.0 days
Activity (%) 10 mg/kg sc [3]: 99.74%
% reduction of adult worms growth at day 49 after per os application of 400 mg/kg, TWR (%) [4]: 26%
Adult worms day 49, per os 400 mg/kg, DEAD WORM (%) [4]: 4%

NS(=O)(=O)c1ccc(NCC2CCC3(CC2)OOC2(O3)C3CC4CC(C3)CC2C4)cc1 (centres unmarked) [compound 298]
Survival (P. berghei ANKA strain; [5]): 11 days
Activity (%) (P. berghei ANKA strain; [5]): 93%
Survival (P. berghei ANKA strain; [6]): 16.4 days
Activity (%) (P. berghei ANKA strain; [6]): 99.99%

O=C1COC2(CCC3(CC2)OOC2(O3)C3CC4CC(C3)CC2C4)OC1 (centres unmarked) [OZ130, Adamantane-2-spiro-3′-11′-oxo-1′,2′,4′,9′,13′-pentaoxadispiro[4.2.5.2]pentadecane]
IC50 [1]: 0.62 ng/mL (≈ 0.00177 µM)
IC50 [2]: 0.94 ng/mL (≈ 0.00268 µM)
Survival (days) 10 mg/kg po [3]: 9.0 days
Activity (%) 10 mg/kg po [3]: 98.8%
Survival (days) 10 mg/kg SSV po [3]: 8.0 days
Activity (%) 10 mg/kg SSV po [3]: 98.9%
Survival (days) 10 mg/kg sc [3]: 7.3 days
Activity (%) 10 mg/kg sc [3]: 98.6%
% reduction of adult worms growth at day 49 after per os application of 400 mg/kg, TWR (%) [4]: 0%
Adult worms day 49, per os 400 mg/kg, DEAD WORM (%) [4]: 8%
